The text below walks through data of patent publication US12421235B2, “Bridged tricyclic carbamoylpyridone compounds and uses thereof” (Gilead Sciences, Inc., priority 2020, dated 2025).

Structures are written as SMILES. Read-outs that look alike come from different tables or passages of the source.

Data set [1] relates to pLai RLuc reporter virus in MT-4 cells. The data set can be described thus: HIV MT-4 serum shift antiviral reporter assay. The format is cell-based. Particulars: Human immunodeficiency virus 1, MT4, 72 h, read-out: RLUC CCM. On the procedure:
Example 48: HIV MT-4 Serum Shift Antiviral Reporter Assay
To quantify the amount of protein binding to human serum, compounds were serially diluted (1:3) in DMSO and acoustically transferred onto 384-well assay plates via a Labcyte ECHO robot. Each plate contained up to 8 test compounds, including negative and positive controls, (DMSO, 5 μM AZT respectively). Assay plates were prepared in duplicate, and tested in either CCM (cell culture media) or HS/CCM (human serum/cell culture media). MT-4 cells were first pre-infected with pLai RLuc reporter virus for 2 h at 37° C., then further diluted in either CCM (RPMI media, 10% FBS, 1% P/S) or HS/CCM (RPMI media, 10% FBS, 50% HS, 1% P/S), and subsequently added to each plate using a Biotek Micro Flow dispenser. After a 72-h incubation in a humidified and temperature controlled incubator (37° C.), Renilla Glo (Promega) was added to all assay plates and chemiluminescence read using an Envision plate-reader. EC50 values were defined as the compound concentration that causes a 50% decrease in luminescence signal, and were calculated using a sigmoidal dose-response model to generate curve fits. To determine the amount of protein binding, EC50 fold shifts (or EC50 shifts) were calculated by dividing EC50 (HS/CCM)/EC50 (CCM). […]
(Reporter assays use an easily measured gene product as a stand-in for the process of interest.)

Data set [2] has as its system HIV-1 (IIIB) in MT-4 cells. Description: HIV MT-4 antiviral assay. The format is cell-based. The following applies: Human immunodeficiency virus 1, MT4, 120 h, 5 days, Cell Titer Glo. How it is done: Example 47: HIV MT-4 Antiviral and Cytotoxicity Assay
Antiviral Assay in MT-4 Cells
(§1) Compounds were tested in a high-throughput 384-well assay format for their ability to inhibit the replication of HIV-1 (IIIB) in MT-4 cells. Compounds were serially diluted (1:3) in DMSO on 384-well polypropylene plates and further diluted 200-fold into complete RPMI media (10% FBS, 1% P/S) using the Biotek Micro Flow and Labcyte ECHO acoustic dispenser. Each plate contained up to 8 test compounds, with negative (No Drug Control) and 5 μM AZT positive controls. MT-4 cells were pre-infected with 10 μL of either RPMI (mock-infected) or a fresh 1:250 dilution of HIV-1 IIIB concentrated virus stock. Infected and uninfected MT-4 cells were further diluted in complete RPMI media and added to each plate using a Micro Flow dispenser. After 5 days incubation in a humidified and temperature controlled incubator (37° C.), Cell Titer Glo (Promega) was added to the assay plates and chemiluminescence read using an Envision plate-reader. EC50 values were defined as the compound concentration that causes a 50% decrease in luminescence signal, and were calculated using a sigmoidal dose-response model to generate curve fits.
A general note: In ATP-based viability assays light output follows the ATP content of the culture.

Data set [3] is described as follows: Cytotoxicity assay in MT-4 cells. The format is cell-based. Particulars: human, uninfected MT-4 cells, Cell Titer Glo. How it is done:
as §1, with “fits. Cytotoxicity Assay in MT-4 Cells Assays were performed as above except uninfected MT-4 cells were added to each well containing test compound. In addition, 10 μM puromycin was added to the last column of each assay plate to assess a base level of cytotoxicity.” for “fits.”

Data set [4] is described as follows: High throughput microsomal stability assay (human liver microsomes). The format is in vitro ADME. Particulars: for HLM stability: human liver microsomes, 1 uM compound, NADPH + UDPGA cofactors, 37 C. On the procedure:
Example 49: High Throughput Microsomal Stability Assay
Metabolic stability of compounds was assessed using Human, or Rat Liver Microsomal assays (Corning). In this assay, 10 nL compounds at concentration of 1 mM in 100% DMSO were dispensed into 384-well polypropylene plates using the Echo 550 acoustic liquid dispenser (Labcyte®). Each plate contained 384 wells with a single test compound in each well.
A solution of human (Corning® Gentest™ Human Mixed Pooled Microsomes), or rat (Corning® Gentest™ Rat [Sprague-Dawley] Pooled Liver Microsomes) liver microsomes at 2 mg/ml in 100 mM K2HPO4/KH2PO4 pH 7.4 with Alamethicin from Trichoderma viride (Sigma-Aldrich) 0.0225 mg/ml were incubated on ice for 15 minutes. 5 uL of this solution was added to individual wells following 15 minute incubation at room temperature; and supplemented with 5 uL NADPH Regenerating Solution of cofactors (Corning® Gentest™ UGT Reaction Mix) containing 100 mM K2HPO4/KH2PO4 pH 7.4, 2.6 mM NADP+, 6.6 mM glucose-6-phosphate, 6.6 mM MgCl2, 0.8 U/mL glucose-6-phosphate dehydrogenase, 0.1 mM Sodium Citrate, 6.8 mM uridine diphosphate-glucuronic acid. Final concentration of analyte compounds at the beginning of the reaction was 1 uM. The reactions were incubated at 37° C. and time points of 0, 5, 15, 30, 40, 50, 60, and 70 minutes were collected for further analysis. Background data were collected using reactions without analyte compounds.
Upon collection of the reaction time points, samples were quenched with 30 uL of a solution of 72% acetonitrile, 8% methanol, 0.1% formic acid, 19.9% water, and internal standard (IS). Reaction plates were span in a centrifuge at speed of 4,000 rcf for 30 minutes and 4° C., following a dilution of the 10 uL quenched reaction into 40 uL de-ionized water, yielding assay plates.
Assay plates were analyzed using solid-state extraction coupled with quadrupole time-of-flight mass spectrometer, using Agilent QToF 6530 RapidFire 360 system, with C4 type A solid state cartridges. Analysis was performed in either positive or negative ionization modes. Mobile phases contained 0.1% formic acid in water for loading analytes onto solid state extraction cartridges, and 0.1% formic acid in acetonitrile for elution into mass spectrometer in positive ionization mode, or 0.1% acetic acid in water for loading and 0.1% acetic acid in acetonitrile for extraction in negative ionization mode. Peak-area ratios of integrated counts for individual compounds to IS were plotted as semi-logarithmic chart of log vs time. Initial, linear portion of decay was fitted to a linear regression equation to derive half time of a compound decay.
Pharmacological parameters for an analyte compound metabolism were calculated using the following equations: […]
Where. Calculation of In Vitro Intrinsic Clearance
Concentration refers to the protein concentration (mg/mL) in the reaction.
Calculation of In Vivo Intrinsic Clearance
This scales the in vitro intrinsic clearance up to the value that would be predicted for the entire mass of liver tissue (but with no restriction by blood flow). The value depends upon the size of the liver (species-dependent) and the yield of microsomal protein as appropriate (assumed to be species-independent).
Calculation of Predicted Clearance
Hepatic clearance will depend upon the inter-relationship of intrinsic clearance and hepatic blood flow and can be predicted from in vitro data using a variety of approaches.
Calculation of Hepatic Extraction
This is simply the predicted clearance expressed as a proportion of hepatic blood flow. E=CL/QH*100%
Intrinsic clearance of the instant compounds, as well as for reference compounds A-F, were calculated following the procedure above.
In general terms: Liver microsomes are a subcellular fraction often used to study metabolism.

Turning to `C[C@H]1CC[C@H](O)[C@H]2CN1C(=O)c1c(O)c(=O)c(C(=O)NCc3c(F)cc(F)cc3F)cn12` [Example 2, (3S,6S,7R)-6,12-dihydroxy-3-methyl-1,11-dioxo-N-(2,4,6-trifluorobenzyl)-1,4,5,6,7,11-hexahydro-3H-2,7-methanopyrido[1,2-a][1,4]diazonine-10-carboxamide], the EC50 in data set [1] was found to be 0.53 nM; in data set [2] it was 1.8 nM. Also, the CC50 (usually the concentration giving 50% cytotoxicity) at 5 days in data set [3] is 50000 nM. Also, the HLM stability in data set [4] was found to be 2.5 mL/min/kg.

In the case of `CO[C@H]1CC[C@H](C)N2C[C@H]1n1cc(C(=O)NCc3ccc(F)cc3F)c(=O)c(O)c1C2=O` [Example 3, (3S,6S,7R)—N-(2,4-difluorobenzyl)-12-hydroxy-6-methoxy-3-methyl-1,11-dioxo-1,4,5,6,7,11-hexahydro-3H-2,7-methanopyrido[1,2-a][1,4]diazonine-10-carboxamide], the EC50 in data set [1] amounted to 0.42 nM; in data set [2], 1.5 nM. This molecule also returned a CC50 at 5 days in data set [3] of 16500 nM. Further, the HLM stability in data set [4] worked out at 2.5 mL/min/kg. The “MS Cl improvement” value in data set [4] (relative to compound B) was 3.2 times relative to compound B.

Take `CO[C@@H]1C=C[C@H](C)N2C[C@H]1n1cc(C(=O)NCc3c(F)cc(F)cc3F)c(=O)c(O)c1C2=O` [Example 4, (3S,6R,7R)-12-hydroxy-6-methoxy-3-methyl-1,11-dioxo-N-(2,4,6-trifluorobenzyl)-1,6,7,11-tetrahydro-3H-2,7-methanopyrido[1,2-a][1,4]diazonine-10-carboxamide]: the EC50 in data set [1] turned out to be 0.34 nM; in data set [2] it was 1.1 nM. The molecule further returned a CC50 at 5 days in data set [3] of 11200 nM. For the same molecule, the HLM stability in data set [4] turned out to be 2.33 mL/min/kg. In addition, the “MS Cl improvement” value in data set [4] (relative to compound C) is recorded as 3.6 times relative to compound C.

As for `C[C@H]1CC[C@@H](O)[C@H]2CN1C(=O)c1c(O)c(=O)c(C(=O)NCc3c(F)cc(F)cc3F)cn12` [Example 5, (3S,6R,7R)-6,12-dihydroxy-3-methyl-1,11-dioxo-N-(2,4,6-trifluorobenzyl)-1,4,5,6,7,11-hexahydro-3H-2,7-methanopyrido[1,2-a][1,4]diazonine-10-carboxamide], the figures for the EC50 in data set [1] and in data set [2] were 0.71 nM and 1.8 nM, respectively. In data set [3], the CC50 at 5 days was 50000 nM. In addition, the HLM stability in data set [4] came to 3.33 mL/min/kg.

Regarding `CO[C@@H]1CC[C@H](C)N2C[C@H]1n1cc(C(=O)NCc3c(F)cc(F)cc3F)c(=O)c(O)c1C2=O` [Example 6, (3S,6R,7R)-12-hydroxy-6-methoxy-3-methyl-1,11-dioxo-N-(2,4,6-trifluorobenzyl)-1,4,5,6,7,11-hexahydro-3H-2,7-methanopyrido[1,2-a][1,4]diazonine-10-carboxamide], the EC50 in data set [1] was found to be 0.5 nM; in data set [2], 1.4 nM. In data set [3], this molecule showed a CC50 at 5 days of 13000 nM. The HLM stability in data set [4] was 4.83 mL/min/kg. Also, in data set [4] (relative to compound D), the “MS Cl improvement” value is listed as 2.3 times relative to compound D.

Take `CO[C@@H]1C=C[C@H](C)N2C[C@H]1n1cc(C(=O)NCc3ccc(F)cc3F)c(=O)c(O)c1C2=O` [Example 7, (3S,6R,7R)—N-(2,4-difluorobenzyl)-12-hydroxy-6-methoxy-3-methyl-1,11-dioxo-1,6,7,11-tetrahydro-3H-2,7-methanopyrido[1,2-a][1,4]diazonine-10-carboxamide]: the EC50 was 0.29 nM in data set [1] and 1.2 nM in data set [2]. Moreover, the midpoint of cytotoxicity in data set [3], the CC50 at 5 days, lay at 9910 nM. Further, in data set [4], the “MS Cl improvement” value is 2.0 times relative to compound E. In addition, the HLM stability in data set [4] came to 3.33 mL/min/kg.

As to `CO[C@H]1C=C[C@H](C)N2C[C@H]1n1cc(C(=O)NCc3ccc(F)c(Cl)c3F)c(=O)c(O)c1C2=O` [Example 9, (3S,6S,7R)—N-(3-chloro-2,4-difluorobenzyl)-12-hydroxy-6-methoxy-3-methyl-1,11-dioxo-1,6,7,11-tetrahydro-3H-2,7-methanopyrido[1,2-a][1,4]diazonine-10-carboxamide], the EC50 was determined as 0.42 nM in data set [1] and 1 nM in data set [2]. Moreover, half-maximal cytotoxicity in data set [3] (CC50 at 5 days) was put at 4270 nM. Further, the HLM stability in data set [4] came out at 8 mL/min/kg.

As for `CO[C@@H]1C=C[C@H](C)N2C[C@H]1n1cc(C(=O)NCc3ccc(F)c(Cl)c3F)c(=O)c(O)c1C2=O` [Example 10, (3S,6R,7R)—N-(3-chloro-2,4-difluorobenzyl)-12-hydroxy-6-methoxy-3-methyl-1,11-dioxo-1,6,7,11-tetrahydro-3H-2,7-methanopyrido[1,2-a][1,4]diazonine-10-carboxamide], the EC50 is 0.28 nM in data set [1] and 1.2 nM in data set [2]. The molecule also returned a CC50 at 5 days in data set [3] of 4020 nM. The HLM stability in data set [4] came to 6.67 mL/min/kg.
